Measured values taken from publication PMC9143880, “Improving Antimicrobial Activity and Physico-Chemical Properties by Isosteric Replacement of 2-Aminothiazole with 2-Aminooxazole” (Pharmaceuticals, 2022).
In brackets after ≈: the same amount, converted by molar mass. Where two headings read alike, the source gives them in different places.

What was measured:
[1] = tested on: Mycobacterium tuberculosis H37Ra ITM-M006710 (ATCC 9431); test: Antimycobacterial MIC, microdilution broth / Alamar Blue (resazurin); assay type: cell-based; settings: Mycobacterium tuberculosis, 120 h, Middlebrook 7H9, resazurin after 120 h; read-out: Mtb H37Ra MIC
[2] = tested on: Candida parapsilosis CCM 8260 (ATCC 22019); test: Antifungal microdilution broth (EUCAST); settings: for MIC: Lodderomyces parapsilosis, 24 h, read-out: MIC CP
[3] = tested on: M. smegmatis DSM 43465 (ATCC 607); test: Antimycobacterial MIC, microdilution broth / resazurin; assay type: cell-based; settings: Mycolicibacterium smegmatis; resazurin after 48 h; read-out: MIC M. smegmatis
[4] = tested on: Candida tropicalis CCM 8264 (ATCC 750); test: Antifungal microdilution broth (EUCAST); settings: for MIC: Candida tropicalis, 24 h, read-out: MIC CT
[5] = tested on: Staphylococcus aureus subsp. aureus CCM 4223 (ATCC 29213); test: Antibacterial microdilution broth (EUCAST); assay type: cell-based; settings: 24h incubation; for MIC: Staphylococcus aureus, read-out: MIC SA
[6] = tested on: Escherichia coli CCM 3954 (ATCC 25922); test: Antibacterial microdilution broth (EUCAST); assay type: cell-based; settings: 24h incubation; for MIC: Escherichia coli, read-out: MIC EC
HepG2 cells = test: HepG2 cytotoxicity screening (CellTiter 96); assay type: cell-based, human; settings: Homo sapiens, HepG2, 24 h, 24 h incubation, CellTiter 96; * above highest tested concentration; ** limited by insolubility in medium
[7] = tested on: Candida albicans CCM 8320 (ATCC 24433); test: Antifungal microdilution broth (EUCAST); settings: for MIC: Candida albicans, 24 h, read-out: MIC CA
[8] = tested on: Pseudomonas aeruginosa CCM 3955 (ATCC 27853); test: Antibacterial microdilution broth (EUCAST); assay type: cell-based; settings: 72h incubation; for MIC: Pseudomonas aeruginosa, read-out: MIC PA
[9] = tested on: Aspergillus flavus CCM 8363; test: Antifungal microdilution broth (EUCAST); settings: for MIC: Aspergillus flavus, CCM8363, 24 h, read-out: MIC AFla
[10] = tested on: Staphylococcus epidermidis CCM 4418 (ATCC 12228); test: Antibacterial microdilution broth (EUCAST); assay type: cell-based; settings: 24h incubation; for MIC: Staphylococcus epidermidis, read-out: MIC SE
[11] = tested on: M. aurum DSM 43999 (ATCC 23366); test: Antimycobacterial MIC, microdilution broth / resazurin; assay type: cell-based; settings: Mycolicibacterium aurum; resazurin after 72 h; read-out: MIC M. aurum
[12] = tested on: Aspergillus fumigatus ATCC 204305; test: Antifungal microdilution broth (EUCAST); settings: for MIC: Aspergillus fumigatus, ATCC204305, 24 h, read-out: MIC AF
[13] = tested on: Acinetobacter baumannii DSM 30007 (ATCC 19606); test: Antibacterial microdilution broth (EUCAST); assay type: cell-based; settings: 24h incubation; for MIC: Acinetobacter baumannii, read-out: MIC AB
[14] = tested on: Candida krusei CCM 8271 (ATCC 6258); test: Antifungal microdilution broth (EUCAST); settings: for MIC: Pichia kudriavzevii, 24 h, read-out: MIC CK
[15] = tested on: Staphylococcus aureus subsp. aureus (MRSA) CCM 4750 (ATCC 43300); test: Antibacterial microdilution broth (EUCAST); assay type: cell-based; settings: 24h incubation; for MIC: Staphylococcus aureus, read-out: MIC MRSA
[16] = tested on: Trichophyton interdigitale CCM 8377 (ATCC 9533); test: Antifungal microdilution broth (EUCAST); settings: for MIC: Trichophyton interdigitale, 72 h, read-out: MIC TI
[17] = tested on: Lichtheimia corymbifera CCM 8077; test: Antifungal microdilution broth (EUCAST); settings: for MIC: Lichtheimia corymbifera, CCM8077, 24 h, read-out: MIC LC
[18] = tested on: Enterococcus faecalis CCM 4224 (ATCC 29212); test: Antibacterial microdilution broth (EUCAST); assay type: cell-based; settings: 24h incubation; for MIC: Enterococcus faecalis, read-out: MIC EF
[19] = Kinetic water solubility (water-induced precipitation of DMSO stock, UHPLC); assay type: physicochemical; settings: for solubility: water (DMSO stock diluted with water), 18 °C, kinetic from dmso stock
Description: A low value of log P is often presumed to be related to increased water solubility, although this might not always be the case since log P is a measure of relative solubility of the compound in the lipophilic and hydrophilic solvents (at equilibrium). Therefore, to be sure, we tested whether the lowered log k’w (related to log P) of the oxazole derivatives would also translate to increased solubility in water in a few representative derivatives. The water solubility of selected compounds was assessed by the kinetic method based on water-induced precipitation of DMSO stock solutions of tested compounds due to reasons described by Azzali and colleagues.
Water solubility was investigated using the kinetic solubility method. The sample (1 mg) was dissolved in the smallest amount of DMSO needed, 25 or 50 μL for subtype I and subtype II compounds, respectively. The samples were mixed at 18 °C in a thermomixer (Thermomixer comfort, Eppendorf, Hamburg, Germany) for 1 h. After mixing, the samples were diluted with water to a concentration of 500 μM, and the precipitate was observed. The sample was filtered through a 0.22 μm filter and diluted to be evaluated by UHPLC. The log S parameter was calculated from the experimental solubility in molar concentration. The samples were measured using the same instrument, software, and column as used in the purity evaluation.

[20] = tested on: M. kansasii DSM 44162 (ATCC 12478); test: Antimycobacterial MIC, microdilution broth / resazurin; assay type: cell-based; settings: Mycobacterium kansasii, read-out: MIC M. kansasii
[21] = tested on: M. avium DSM 44156 (ATCC 25291); test: as above; assay type: cell-based, Mycobacterium avium; settings: Mycobacterium avium; resazurin after 96 h; read-out: MIC M. avium
[22] = RP-UHPLC lipophilicity parameter log k’w; assay type: physicochemical; settings: for log k’w: RP-UHPLC, acetonitrile/water, log k extrapolated to 0% acetonitrile; for logkw: experimental lipophilicity parameter
Procedure, shortened: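 log k’w from isocratic RP-UHPLC with an acetonitrile/water mobile phase, using 40, 45 and 50% acetonitrile for subtype I and 20, 30 and 40% for subtype II. A single run was made at each mobile-phase composition.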

[23] = calculated from experimentally measured water solubility in molar concentration, read-out: Exp. log S (converted)
[24] = water, kinetic method, DMSO stock diluted to 500 μM, read-out: Solubility

SMILES | MIC [1] [µg/mL] | MIC [2] [µM] | MIC [3] [µg/mL] | MIC [4] [µM] | MIC [5] [µM] | MIC [6] [µM] | IC50 (HepG2 cells) [µM] | MIC [7] [µM] | MIC [8] [µM] | MIC [9] [µM] | MIC [10] [µM] | MIC [11] [µg/mL] | MIC [12] [µM] | MIC [13] [µM] | MIC [14] [µM] | MIC [15] [µM] | MIC [16] [µM] | MIC [17] [µM] | MIC [18] [µM] | log k’w [22] | other results
O=C(Nc1nccs1)c1cccnc1 [Compound 2a] | 250 (≈ 1220 µM) | > 500 | ≥ 500 | > 500 | > 500 | > 500 | > 1000 | > 500 | > 500 | > 500 | > 500 | 250 (≈ 1220 µM) | > 500 | > 500 | > 500 | > 500 | > 500 | > 500 | > 500 |  | logS_exp [19]: -1.202
O=C(Nc1nc(-c2ccccc2)cs1)c1cccnc1 [Compound 12a] | ≥ 500 | > 125 | ≥ 500 | > 125 | > 125 | > 125 | > 25 | > 125 | > 125 | > 125 | > 125 | ≥ 500 | > 125 | > 125 | > 125 | > 125 | > 125 | > 125 | > 125 | 2.131 | MIC ([20]; resazurin after 96 h): ≥ 500 µg/mL; MIC [21]: ≥ 500 µg/mL; logkw [22]: 2.131; logS_exp ([19]; experimental log S): -3.188; solubility [19, 23]: 1 µM; solubility [19, 24]: 0.28 µg/mL
O=C(Nc1nc(-c2ccccc2)co1)c1cccnc1 [Compound 12b] | 125 (≈ 471 µM) | > 500 | 500 (≈ 1880 µM) | > 500 | 500 (≈ 133 µg/mL) | > 500 | 610 | > 500 | > 500 | > 500 | 62.5 (≈ 16.6 µg/mL) | 250 (≈ 942 µM) | > 500 | > 500 | > 500 | > 500 | > 500 | > 500 | > 500 | 1.118 | logkw [22]: 1.118; logS_exp ([19]; experimental log S): -2.228; solubility [19, 23]: 437 µM; solubility [19, 24]: 116 µg/mL
O=C(Nc1nc(-c2ccccc2)co1)c1cnc(Cl)cn1 [Compound 18b] | 15.6 (≈ 52 µM) |  | ≥ 500 |  |  |  | > 100 |  |  |  |  | 125 (≈ 416 µM) |  |  |  |  |  |  |  | 2.073 | MIC CP ([2]; 24h incubation): insoluble; MIC CT ([4]; 24h incubation): insoluble; MIC SA [5]: insoluble; MIC EC [6]: insoluble; MIC CA ([7]; 24h incubation): insoluble; MIC PA [8]: insoluble; MIC AFla ([9]; 24h incubation): insoluble; MIC SE [10]: insoluble; MIC ([20]; 96 h): 15.6 µg/mL (≈ 52 µM); MIC AF ([12]; 24h incubation): insoluble; MIC [21]: 62.5 µg/mL (≈ 208 µM); MIC AB [13]: insoluble; MIC CK ([14]; 24h incubation): insoluble; MIC MRSA [15]: insoluble; MIC TI ([16]; 72h incubation): insoluble; MIC LC ([17]; 24h incubation): insoluble; melting point: 203 to 207 °C; MIC EF [18]: insoluble; logkw [22]: 2.073
O=C(Nc1nc(-c2ccccc2)co1)c1ccccc1 [Compound 20b] | 62.5 (≈ 236 µM) | 500 (≈ 132 µg/mL) | 125 (≈ 473 µM) | 500 (≈ 132 µg/mL) | 250 (≈ 66.1 µg/mL) | > 500 | 330 | 500 (≈ 132 µg/mL) | > 500 | 500 (≈ 132 µg/mL) | 250 (≈ 66.1 µg/mL) | 31.2 (≈ 118 µM) | 500 (≈ 132 µg/mL) | 500 (≈ 132 µg/mL) | 500 (≈ 132 µg/mL) | 500 (≈ 132 µg/mL) | 250 (≈ 66.1 µg/mL) | 500 (≈ 132 µg/mL) | > 500 | 2.090 | MIC ([20]; resazurin after 96 h): 31.2 µg/mL (≈ 118 µM); MIC [21]: 31.2 µg/mL (≈ 118 µM); melting point: 143 to 145 °C
